Test system: A549 cells
Experiment: Cellular proliferation/cytotoxicity assay (Alamar Blue), A549
Assay type: cell-based
Conditions: Homo sapiens, 72 h, Alamar Blue (Resazurin), read-out: Anti-proliterative/Cytotoxic activity (A549 cells)
Summary of the method: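 OvCAR3 (10000 cells/well) or A549 (2000 cells/well) were dosed 24 h after seeding and exposed for 72 h at 37 °C, 5% CO2, in duplicate or more. Resazurin was added for 4 h and fluorescence read at 544/590 nm. Viability is relative to untreated 0.5% DMSO controls, with IC50 by non-linear regression.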

With `Fc1cnc2nc(-c3ccc(CN4CCC(c5n[nH]c(-c6ncccn6)n5)CC4)cc3)c(-c3ccccc3)cn12` [Example 25, 3-fluoro-6-phenyl-7-(4-{[4-(5-pyrimidin-2-yl-1H-1,2,4-triazol-3-yl)piperidin-1-yl]methyl}phenyl)imidazo[1,2-a]pyrimidine] the IC50 was over 10 µM.
`C#Cc1cnn2cc(-c3ccccc3)c(-c3ccc(CN4CCC(c5n[nH]c(-c6ccccn6)n5)CC4)cc3)nc12` [Example 33, 3-Ethynyl-6-phenyl-5-(4-{[4-(5-pyridin-2-yl-1H-1,2,4-triazol-3-yl)piperidin-1-yl]methyl}phenyl)pyrazolo[1,5-a]pyrimidine] gave an IC50 of under 10 µM.
Work on `CCc1cnn2cc(-c3ccccc3)c(-c3ccc(CN4CCC(c5n[nH]c(-c6ccccn6)n5)CC4)cc3)nc12` [Example 34, 3-Ethyl-6-phenyl-5-(4-{[4-(5-pyridin-2-yl-1H-1,2,4-triazol-3-yl)piperidin-1-yl]methyl}phenyl)pyrazolo[1,5-a]pyrimidine] yielded an IC50 of under 10 µM.
For `Cc1cccc(-c2nc(C3CCN(Cc4ccc(-c5nc6nccn6cc5-c5ccccc5)cc4)CC3)n[nH]2)n1` [Example 36, 7-[4-({4-[5-(6-Methylpyridin-2-yl)-1H-1,2,4-triazol-3-yl]piperidin-1-yl}methyl)phenyl]-6-phenylimidazo[1,2-a]pyrimidine], the IC50 was under 10 µM.
Compound `CC(c1ccc(-c2nc3nccn3cc2-c2ccccc2)cc1)N1CCC(c2n[nH]c(-c3ccccn3)n2)CC1` (racemic) [Example 23, 6-phenyl-7-(4-{1-[4-(5-pyridin-2-yl-1H-1,2,4-triazol-3-yl)piperidin-1-yl]ethyl}phenyl)imidazo[1,2-a]pyrimidine] has an IC50 of over 10 µM.
Work on `Clc1cnn2cc(-c3ccccc3)c(-c3ccc(CN4CCC(c5n[nH]c(-c6ccccn6)n5)CC4)cc3)nc12` [Example 30, 3-Chloro-6-phenyl-5-(4-{[4-(5-pyridin-2-yl-1H-1,2,4-triazol-3-yl)piperidin-1-yl]methyl}phenyl)pyrazolo[1,5-a]pyrimidine] yielded an IC50 of under 10 µM.
Work on `Fc1cnc2nc(-c3ccc(CN4CCC(c5n[nH]c(-c6cnccn6)n5)CC4)cc3)c(-c3ccccc3)cn12` [Example 24, 3-fluoro-6-phenyl-7-(4-{[4-(5-pyrazin-2-yl-1,2,4-triazol-3-yl)piperidin-1-yl]methyl}phenyl)imidazo[1,2-a]pyrimidine] yielded an IC50 of over 10 µM.
`N#Cc1cnn2cc(-c3ccccc3)c(-c3ccc(CN4CCC(c5n[nH]c(-c6ccccn6)n5)CC4)cc3)nc12` [Example 32, 6-Phenyl-5-(4-{[4-(5-pyridin-2-yl-1H-1,2,4-triazol-3-yl)piperidin-1-yl]methyl}phenyl)pyrazolo[1,5-a]pyrimidine-3-carbonitrile] gave an IC50 of over 10 µM.
Work on `Brc1cnn2cc(-c3ccccc3)c(-c3ccc(CN4CCC(c5n[nH]c(-c6ccccn6)n5)CC4)cc3)nc12` [Example 31, 3-Bromo-6-phenyl-5-(4-{[4-(5-pyridin-2-yl-1H-1,2,4-triazol-3-yl)piperidin-1-yl]methyl}phenyl)pyrazolo[1,5-a]pyrimidine] yielded an IC50 of under 10 µM.
`Cc1ccnc(-c2nc(C3CCN(Cc4ccc(-c5nc6nccn6cc5-c5ccccc5)cc4)CC3)n[nH]2)c1` [Example 35, 7-[4-({4-[5-(4-Methylpyridin-2-yl)-1H-1,2,4-triazol-3-yl]piperidin-1-yl}methyl)phenyl]-6-phenylimidazo[1,2-a]pyrimidine] showed an IC50 of under 10 µM.
`CCc1nc2nc(-c3ccc(CN4CCC(c5n[nH]c(-c6ccccn6)n5)CC4)cc3)c(-c3ccccc3)cn2n1` [Example 40, 2-Ethyl-6-phenyl-5-(4-{[4-(5-pyridin-2-yl-1H-1,2,4-triazol-3-yl)piperidin-1-yl]methyl}phenyl)[1,2,4]triazolo[1,5-a]pyrimidine] showed an IC50 of under 10 µM.
